From paper PMC7034088, “Effect of verapamil on the pharmacokinetics of hydroxycamptothecin and its potential mechanism” (Pharmaceutical Biology, 2020)
Read-outs that look alike come from different tables or passages of the source.

Experiments:
[1] = In vivo pharmacokinetic study of oral HCPT in rats with or without verapamil pre-treatment; conditions: male, Sprague-Dawley, rat, plasma, 50 mg/kg, HCPT 50 mg/kg intragastric/oral, n = 6, Mean ± S.D.; for CL/F: read-out: CLz/F (oral clearance) (converted)
Experimental: Male Sprague–Dawley rats weighing 230–250 g were provided by Shanghai SLAC Laboratory Animal Co., Ltd (Shanghai, China). Rats were bred in a breeding room at 25 °C with 60 ± 5% humidity and a 12 h dark-light cycle. Tap water and normal chow were given ad libitum. All of the experimental animals were housed under the above conditions, for a 3-day acclimation period and fasted overnight before the experiments. All experimental procedures and protocols were reviewed and approved by the Animal Care and Use Committee of China–Japan Union Hospital of Jilin University and were in accordance with the National Institutes of Health guidelines regarding the principles of animal care.
Rats were divided into two groups of six animals each, with or without pre-treatment of verapamil. The pre-treatment of verapamil on the test group was at a dose of 10 mg/kg/day (dissolved directly in normal saline containing 0.5% methylcellulose at a concentration of 2 mg/mL) for 7 days. Next, 50 mg/kg HCPT was administrated orally. Blood samples (200 μL) were collected into heparinized tubes via the oculi choroidal vein at 0.083, 0.33, 0.5, 1, 2, 4, 6, 8, 10, 12, 24, and 36 h after the oral administration of […]. The blood samples were centrifuged at 3500 rpm for 5 min. The plasma samples that were obtained were stored at −40 °C until analysis.
To obtain 100 μL aliquot of plasma sample, 20 μL methanol and 180 μL internal standard methanol solution (2 ng/mL) were added and vortexed for 60 s to mix in a 1.5 mL polypropylene tube, and were centrifuged at 12,000 rpm for 10 min. The supernatant was removed into an injection vial, and a 3 μL aliquot was injected into the LC-MS/MS system for analysis.
The determination of HCPT was performed on an Agilent 1290 series liquid chromatography system and an Agilent 6470 triple-quadruple mass spectrometer (Palo Alto, CA). The HPLC/MS conditions and sample preparation were basically according to a validated HPLC method described before (Zhang et al. [2019]). The chromatographic analysis of HCPT was performed on a Waters X-Bridge C18 column (3.0 × 100 mm, i.d.; 3.5 μm, Waters Corporation, Milford, MA ) at room temperature (25 °C). The mobile phase was water (containing 0.1% formic acid) and acetonitrile (30:70, v: v) with isocratic elution at a flow rate of 0.2 mL/min, and the analysis time was 4 min.
The mass scan mode was positive MRM mode. The precursor ion and product ion are m/z 365.20→321.10 for HCPT and m/z 349.25→305.15 for IS. The collision energy for HCPT and IS were 30 and 20 eV, respectively. The MS/MS conditions were optimized as follows: fragmentor, 110 V; capillary voltage, 3.5 kV; Nozzle voltage, 500 V; nebulizer gas pressure (N2), 40 psig; drying gas flow (N2), 10 L/min; gas temperature, 350 °C; sheath gas temperature, 400 °C; sheath gas flow, 11 L/min.
Pharmacokinetic parameters, including the area under the plasma concentration–time curve (AUC), maximal plasma concentration (Cmax), the time for the maximal plasma concentration (Tmax), and the mean residence time (MRT), were calculated using the DAS 3.0 pharmacokinetic software (Chinese Pharmacological Association, Anhui, China).

[2] = Metabolic stability of HCPT in rat liver microsomes with or without verapamil; assay type: in vitro ADME; conditions: for microsomal CLint at 1 µM: read-out: intrinsic clearance rate
Experimental: The metabolic stability of HCPT was investigated in rat liver microsomes with or without verapamil. The detailed methods were similar to those reported before (Wang et al. [2017]; Yan et al. [2017]). Briefly, 30 μL rat liver microsome (20 mg/mL), 12 μL HCPT solution (100 μM) and 1113 μL PBS buffer (0.1 M, pH 7.4) were added to the centrifuge tubes on ice. After a 5-min preincubation at 37 °C, the NADPH-generating system (45 μL) was added into the microsomal suspension to initiate the reaction. Meanwhile, the effects of verapamil or ketoconazole (a positive CYP3A4 inhibitor) on the metabolic stability of HCPT were investigated by adding 10 μM of verapamil or ketoconazole (12 μL, final concentration of 0.1 μM) to rat liver microsomes and preincubating them for 30 min at 37 °C, followed by the addition of NADPH-generating system. Aliquots of 100 μL were collected from the reaction volumes at 0.083, 0.167, 0.33, 0.5, 1, 2, 4, 8, 12, 24, and 36 h after the addition of HCPT, and 200 μL ice-cold acetonitrile containing esculin was added to terminate the reaction. All the experiments were performed in triplicate. The subsequent sample preparation method was the same as the plasma sample preparation method, and the concentration of HCPT was determined by LC-MS.
The in vitro half-life (t1/2) was obtained using the equation: t1/2 = 0.693/k; V (μL/mg) = volume of incubation (μL)/protein in the incubation (mg); intrinsic clearance (Clint) (μL/min/mg protein) = V × 0.693/t1/2.

[3] = Bidirectional transport of HCPT in the Caco-2 cell transwell model with or without verapamil; conditions: human; for efflux ratio at 2 µM: Caco-2, pH 7.4, efflux ratio, Caco-2 transwell, HCPT 2 μM
Experimental: (§1) The Caco-2 cell line was obtained from the American Type Culture Collection (Manassas, VA), and it was performed according to the previous study (Liu et al. [2019]). The Caco-2 cells were cultured in DMEM high glucose medium containing 15% FBS, 1% NEAA, and 100 U/mL penicillin and streptomycin. The cells were cultured at 37 °C with 5% CO2. For transport studies, the cells at passage 40 were seeded on transwell polycarbonate insert filters (1.12 cm^2 surface, 0.4 μm pore size, 12 mm diameter; Corning Co-star Corporation, Corning, MA) in 12-well plates at a density of 1 × 10^5 cells/cm^2. Cells were allowed to grow for 21 days. For the first seven days, the medium was replaced every two days, and then daily. The transepithelial electrical resistance (TEER) of the monolayer cells was measured using Millicell ERS-2 (Millipore Corporation, Billerica, MA), and TEER exceeding 400 Ω·cm^2 was used for the flux experiment. […] The alkaline phosphatase activity was validated using an Alkaline Phosphatase Assay Kit. The qualified monolayers were used for transport studies.
(§2) The Caco-2 cell transwell model was employed to investigate the transport of HCPT in the presence or absence of verapamil. The cell monolayers were rinsed twice with warm (37 °C) Hanks’ balanced salt solution (HBSS) before the transport experiments. After that, the cells were incubated at 37 °C for 20 min. HCPT was added to either apical or basolateral side to incubate with the cell monolayers in fresh incubation medium for the indicated times at 37 °C, after preincubation. The volume of incubation medium on the apical and basolateral sides was 0.5 mL and 1.5 mL, respectively, and a 100 μL aliquot of the incubation solution was withdrawn at the indicated time points from the receiver compartment and replaced with the same volume of fresh pre-warmed HBSS buffer. The permeability of HCPT (2 μM) in all of the above conditions for both directions, i.e., from the apical (AP) side to the basolateral (BL) side and from the BL side to the AP side, was measured after incubation for 30, 60, 90, and 120 min at 37 °C. In addition, the efflux activity of P-gp was validated using a typical P-gp substrate digoxin (25 μM).
(§3) The apparent permeability coefficient (Papp) was calculated using the equation of Artursson and Karlsson: Papp=(ΔQ/Δt)×[1/(A×C0)] where Papp is the apparent permeability coefficient (cm/s), ΔQ/Δt (μmol/s) is the rate at which the compound appears in the receiver chamber, C0 (μmol/L) is the initial concentration of the compound in the donor chamber, and A (cm^2) represents the surface area of the cell monolayer. Data were collected from three separate experiments, and each was performed in triplicate.

P-gp = experiment: as above; conditions: human, Caco-2, efflux ratio, Caco-2 transwell, digoxin 25 μM (P-gp substrate validation), without verapamil
Experimental: as §1, §2, §3

Caco-2 cell monolayers = experiment: as above; conditions: Caco-2 transwell, digoxin 25 μM, with addition of verapamil
Experimental: as §1, §2, §3

[4] = pre-treatment of verapamil 10 mg/kg/day for 7 days
[5] = pH 7.4, with verapamil, final concentration 0.1 µM, in the presence of verapamil (preincubation 30 min at 37 °C)

For `CC[C@@]1(O)C(=O)OCc2c1cc1n(c2=O)Cc2cc3cc(O)ccc3nc2-1` [HCPT, Hydroxycamptothecin], the AUC(0-t) ([1]; control (no verapamil)) was 660 ± 100 ng·h/mL, the Cmax ([1]; control (no verapamil)) was 92 ± 11.3 ng/mL and the MRT ([1]; control (no verapamil)) was 9.61 ± 0.55 h. The Tmax ([1]; control (no verapamil)) was 1.12 ± 0.14 h, the half-life ([1]; control (no verapamil)) was 17.7 ± 3.6 h and the CL/F ([1]; control (no verapamil)) was 1060 mL/min/kg. It also gave an AUC(0-t) [1, 4] of 1140 ± 290 ng·h/mL, a Cmax [1, 4] of 125 ± 13.5 ng/mL and an MRT [1, 4] of 11.4 ± 0.78 h. It also gave a Tmax [1, 4] of 0.89 ± 0.09 h, a half-life [1, 4] of 23 ± 6.71 h and a CL/F [1, 4] of 549 mL/min/kg. The half-life at 1 µM [2, 5] was 0.807 ± 0.0085 h, the microsomal CLint at 1 µM [2, 5] was 28.6 ± 0.3 µL/min/mg and the half-life at 1 µM ([2]; pH 7.4, without verapamil) was 0.585 ± 0.00533 h. For the same compound, the microsomal CLint at 1 µM ([2]; pH 7.4, without verapamil) was 39.5 ± 0.42 µL/min/mg, the Papp B→A at 2 μM ([3]; Caco-2, pH 7.4) was 0.205 ×10⁻⁶ cm/s and the efflux ratio at 2 µM ([3]; in the presence of verapamil) was 1.21. For the same compound, the efflux ratio at 2 µM ([3]; without verapamil) was 1.82.

With `C[C@H]1O[C@@H](O[C@H]2[C@@H](O)C[C@H](O[C@H]3[C@@H](O)C[C@H](O[C@H]4CC[C@@]5(C)[C@H](CC[C@@H]6[C@@H]5C[C@@H](O)[C@]5(C)[C@@H](C7=CC(=O)OC7)CC[C@]65O)C4)O[C@@H]3C)O[C@@H]2C)C[C@H](O)[C@@H]1O` [digoxin] the efflux ratio at 25 µM (P-gp) was 11 and the “efflux ratio, effect of addition of verapamil” value (Caco-2 cell monolayers) was “abrogated it”.
